“And” between values parts separate entries of the source, which are not always exact repeats. Identical values can stand only once.
Assays:
human THP1 macrophages = test: apoAI-mediated (ABCA1) cholesterol efflux from cholesterol-loaded THP1 macrophages; assay type: cell-based; design: ABCA1 Efflux %: dose or concentration left out as unconfirmed; conditions: for ABCA1 Efflux active/ inactive: vs. the effect of T1317; for ABCA1 percentage of induction, average: average of 3; for ABCA1 Efflux %: average(SEM); for ABCA1 percentage of induction: single experiments (3 per compound); for Induction of ABCA1 cholesterol efflux: THP1 cells (Fig. 3a, 4a)
OSBPL7 = system: T1, OSBPL7; test: Competition with ^3H-Cpd K UV cross-linking to FLAG-tagged OSBPL7 in HEK293 cells (immunoprecipitation, autoradiography); assay type: binding, human; design: OSBP7 percentage of inhibition / OSBP7 percentage of inhibition, average: concentration or dose not given beside the values; OSBPL7 Competition %: dose or concentration left out as unconfirmed; conditions: for OSBP7 percentage of inhibition, average: average of 3; for OSBPL7 Competition %: average(SEM); for OSBP7 percentage of inhibition: single experiments (3 per compound)
T1 construct: Plasmids expressing each as a full-length protein with a C-terminal FLAG tag were obtained; expressed in transfected cells; host or cells: HEK293
Experimental: Briefly, a plasmid expressing a candidate target of interest fused with a FLAG tag was transfected into HEK293 cells. After 24 h, tritiated compound K at a concentration capable of inducing ABCA1-mediated cholesterol efflux (1.0 μM) was added for 3 h, then the live cells were exposed to UV-light (ʎ = 336 nm) to query potential compound/target cross-linking in situ. Cell lysates were prepared, the expressed protein was then selectively immunoprecipitated using an anti-FLAG antibody coupled to sepharose beads, bound proteins were separated by SDS-PAGE, and two identical blots were prepared and probed by western blot and by autoradiography to detect protein expression and presence or absence of compound crosslinking, respectively. The flow chart of this screen is illustrated in Fig. 2. Figure 2d illustrates the ability of Cpd A and Cpd G to displace tritiated Cpd K from overexpressed and immunoprecipitated OSBPL7. Figure 3b illustrates the use of this assay to detect binding of tritiated Cpd K to overexpressed and immunoprecipitated variants of OSBPL7 containing point mutations in the predicted oxysterol binging pocket of OSBPL7. The advantages of this method are: i. the use of plasmid transfection leads to high expression of each candidate which reduces the likelihood to miss an authentic target for those which may be expressed at low endogenous levels, ii. the interaction of the chemical probe with its target occurs in a relevant biological context (live cells) at a pharmacologically active concentration, and iii. immunoprecipitation allows the expressed protein of interest to be purified from background proteins, substantially improving the signal/noise ratio.

Col4a3 KO mice = test: Alport syndrome model: ACR, serum creatinine, BUN, body weight (also vs ramipril); conditions: individual mouse values
normal human fibroblasts = test: Cholesterol efflux to apoAI in normal human fibroblasts
ABCA1 mRNA = ABCA1 mRNA by quantitative real-time PCR in cholesterol-loaded THP1 macrophages; assay type: cell-based, human; conditions: cholesterol-loaded THP1 macrophages, 24 h
Experimental: RNA was isolated using RNEasy Plus Mini kit (Qiagen). Reverse transcription was performed using qScript cDNA Super Mix (Quantabio) according to the manufacturer’s instructions. Quantitative real-time PCR was performed using TaqMan Fast Universal PCR Master Mix and Taqman gene expression assays (Supplementary Table 7).

[1] = system: Tangier (ABCA1-deficient) fibroblasts; test: Cholesterol efflux in Tangier (ABCA1-deficient) fibroblasts
[2] = biological target: human cannabinoid 1 receptor (hCB1-R) (Homo sapiens, UniProt P21554); test: Potency for binding to the CB1R in vitro (Ki); conditions: human CB1 receptor binding
[3] = system: T2, OSBPL7 single mutations in the putative ORD; test: ^3H-Cpd K binding to OSBPL7 single mutants (cross-linking/immunoprecipitation); design: species or system human; conditions: K636A vs wild type
T2 construct: Plasmids expressing each as a full-length protein with a C-terminal FLAG tag were obtained; expressed in transfected cells; host or cells: HEK293
Description: Based on the model, we identified key amino acid residues predicted to line the OSBPL7 ligand-binding pocket, and introduced a series of single mutations. Each mutant was transfected into cells and tested for ^3H-Cpd K binding. Mutation of lysine 636 to alanine reduced the ability of Cpd K to be crosslinked to OSBPL7 by ~75% (Fig. 3b). […] The homology model also predicts that a hydrophobic beta sheet lines the pocket, defined by amino acids that are conserved in the ORDs of other OSBPs (Ile641, Val616, Val618, and Lys636).
Briefly, a plasmid expressing a candidate target of interest fused with a FLAG tag was transfected into HEK293 cells. After 24 h, tritiated compound K at a concentration capable of inducing ABCA1-mediated cholesterol efflux (1.0 μM) was added for 3 h, then the live cells were exposed to UV-light (ʎ = 336 nm) to query potential compound/target cross-linking in situ. Cell lysates were prepared, the expressed protein was then selectively immunoprecipitated using an anti-FLAG antibody coupled to sepharose beads, bound proteins were separated by SDS-PAGE, and two identical blots were prepared and probed by western blot and by autoradiography to detect protein expression and presence or absence of compound crosslinking, respectively. The flow chart of this screen is illustrated in Fig. 2. […]

[4] = 8-week old Col4a3 KO mice, 28 days treatment starting at the age of 4 weeks
[5] = 5 µM, THP1 cells, single experiments

Chain of human cannabinoid 1 receptor (hCB1-R) (P21554 whole entry): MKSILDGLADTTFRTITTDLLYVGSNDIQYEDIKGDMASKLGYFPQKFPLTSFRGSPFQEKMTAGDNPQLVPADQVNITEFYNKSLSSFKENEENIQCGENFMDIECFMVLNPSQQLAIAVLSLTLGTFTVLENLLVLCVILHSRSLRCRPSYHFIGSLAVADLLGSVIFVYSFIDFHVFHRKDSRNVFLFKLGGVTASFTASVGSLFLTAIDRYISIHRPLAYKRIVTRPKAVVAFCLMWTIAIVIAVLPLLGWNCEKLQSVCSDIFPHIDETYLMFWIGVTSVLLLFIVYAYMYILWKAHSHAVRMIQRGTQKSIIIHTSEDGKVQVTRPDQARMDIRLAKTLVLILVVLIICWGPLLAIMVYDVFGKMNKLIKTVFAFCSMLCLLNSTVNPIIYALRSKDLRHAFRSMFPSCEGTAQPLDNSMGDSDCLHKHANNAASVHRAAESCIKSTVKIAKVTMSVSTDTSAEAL

| SMILES | ABCA1 Efflux active/ inactive (human THP1 macrophages; THP1 cells) | ABCA1 percentage of induction, average (human THP1 macrophages) [%] | ABCA1 Efflux % (human THP1 macrophages) | ABCA1 percentage of induction (human THP1 macrophages) | OSBP7 percentage of inhibition, average (OSBPL7) [%] | OSBPL7 Competition % (OSBPL7) | OSBP7 percentage of inhibition (OSBPL7) | further results |
| --- | --- | --- | --- | --- | --- | --- | --- | --- |
| O=C(N[C@@H]1CCCOC1=O)c1cc(-c2ccc(Cl)cc2)c(OCC(F)(F)F)cn1 [Cpd Q] | Inactive | 2 | 2(0.6) % | 1% and 2% and 3% | 8 | 8(2.2) % | 12% and 6% and 5% |  |
| Cc1cc(-c2cc(NC(=O)c3cccnc3)cnc2OCC(F)(F)F)ccn1 [Cpd R] | Inactive | -10 | -10(5) % |  | 17 | 17(5.0) % |  |  |
| Cc1cncc(-c2cc(NC(=O)c3cccnc3)cnc2OCC(F)(F)F)c1 [Cpd S] | Inactive | 2.67 | 3(0.8) % | 1% and 3% and 4% | 0.333 | 0(0.3) % | 0% and 1% |  |
| CCOC(=O)C(CCc1ccccc1)NC(C)C(=O)N1C(C(=O)O)CC2CCCC21 (stereo not shown) [Ramp] |  |  |  |  |  |  |  | BUN (Col4a3 KO mice; [4]): 33 mg/dL and 30 mg/dL and 43 mg/dL and 36 mg/dL and 26 mg/dL and 46 mg/dL and 42 mg/dL and 39 mg/dL; Serum Creatinine (Col4a3 KO mice; [4]): 1.99 µg/mL and 0.12 µg/mL and 2 µg/mL and 3.6 µg/mL and 0.9 µg/mL and 0.28 µg/mL and 1.66 µg/mL |
| O=S(=O)(c1ccccc1)N(CC(F)(F)F)c1ccc(C(O)(C(F)(F)F)C(F)(F)F)cc1 [T1317, reference compound] |  |  |  |  |  |  |  | Cholesterol efflux to apoAI from normal fibroblasts (normal human fibroblasts): increase cholesterol efflux to apoAI from normal; Cholesterol Efflux (%), Normal Fibroblasts (normal human fibroblasts; efflux to apoAI, Cpd H, Cpd J 10 μM, single experiments): 5.16% and 5.7% and 5.82%; Upregulation of ABCA1 mRNA (ABCA1 mRNA): ~ 5 fold; Cholesterol efflux to apoAI from ABCA1-deficient fibroblasts [1]: not from ABCA1-deficient fibroblasts; Cholesterol Efflux (%), Tangier Fibroblasts ([1]; ABCA1-deficient, Cpd H, Cpd J 10 μM, single experiments): 2.04% and 2.39% and 2.47% |
| Cc1c(C(=O)c2cccc3ccccc23)c2cccc3c2n1[C@H](CN1CCOCC1)CO3 [WIN55-212-2, reference compound] |  |  |  |  |  |  |  | ApoA1-mediated Cholesterol Efflux (Fold increase over vehicle control), mean (human THP1 macrophages; 5 µM, THP1 cells, mean of 3): 0.882 fold; ApoA1-mediated Cholesterol Efflux (%) (human THP1 macrophages; [5]): 2.57% and 2.5% and 1.3%; ApoA1-mediated Cholesterol Efflux (Fold increase over vehicle control) (human THP1 macrophages; [5]): 0.895 fold and 1.016 fold and 0.735 fold; Induction of ABCA1 cholesterol efflux (human THP1 macrophages): inactive |
| [3H]c1nc(OCC2CC2)c(-c2ccc(N=[N+]=[N-])c(Cl)c2)c([3H])c1C(=O)N[C@@H]1CCCC[C@H]1O [^3H-Cpd K] |  |  |  |  |  |  |  | Ki [2]: 2.57 µM; EC50 (human THP1 macrophages; THP-1, apoAI-dependent cholesterol efflux from human THP1 cells): 0.2 µM; Reduction of binding/crosslinking to OSBPL7 by mutation K636A [3]: ~ 75% |
| CCOC(=O)[C@H](CCc1ccccc1)N[C@@H](C)C(=O)N1[C@H](C(=O)O)C[C@@H]2CCC[C@@H]21 [ramipril, reference compound] |  |  |  |  |  |  |  | Albumin to Creatinine ratio (Col4a3 KO mice; spot urines, 8-week old Col4a3 KO mice treated from the age of 4 weeks, listed as Ram): 31.85 mg Alb. /mg Cre and 41.0281 mg Alb. /mg Cre and 31.514 mg Alb. /mg Cre and 21.7026 mg Alb. /mg Cre and 31.192 mg Alb. /mg Cre |
| Cc1c(C(=O)NN2CCCCC2)nn(-c2ccc(Cl)cc2Cl)c1-c1ccc(Cl)cc1 [rimonabant, reference compound] | Inactive | 0 | 0(0) % | 0% | 0 | 0(0) % | 0% | ApoA1-mediated Cholesterol Efflux (%) (human THP1 macrophages; [5]): 3.95% and 2.4% and 1.2%; Induction of ABCA1 cholesterol efflux (human THP1 macrophages): did not induce ABCA1 cholesterol efflux |
